Laboratory results published in patent US6352958B1, “Cycloimido-substituted benzofused heterocyclic herbicides” (FMC Corporation, priority 1997, dated 2002).

Tests used:
Assay type in all cases: in vivo
[1] = tested on: wheat (Triticum aestivum var. Lew); test: Postemergence herbicidal activity, wheat; settings: rate of application 0.3 Kg/Ha, rated after 12-17 days
[2] = tested on: wheat (Triticum aestivum var. Lew); test: Preemergence herbicidal activity, wheat; settings: Rate of Application 0.3 Kg/Ha, examined after 12-17 days
[3] = tested on: field corn (Zea mays var. Pioneer 3732); test: Preemergence herbicidal activity, corn; settings: Rate of Application 0.3 Kg/Ha, examined after 12-17 days
[4] = tested on: Johnsongrass (Sorghum halepense); test: Postemergence herbicidal activity, johnsongrass; settings: rate of application 0.3 Kg/Ha, rated after 12-17 days
[5] = tested on: soybean (Glycine max var. Winchester); test: Preemergence herbicidal activity, soybean; settings: Rate of Application 0.3 Kg/Ha, examined after 12-17 days
[6] = tested on: blackgrass (Aloepecurus myosuroides); test: Postemergence herbicidal activity, blackgrass; settings: rate of application 0.3 Kg/Ha, rated after 12-17 days
[7] = tested on: common cocklebur (Xanthium strumarium L.); test: Preemergence herbicidal activity, cocklebur; settings: Rate of Application 0.3 Kg/Ha, examined after 12-17 days
[8] = tested on: common chickweed (Stellaria media); test: Postemergence herbicidal activity, chickweed; settings: rate of application 0.3 Kg/Ha, rated after 12-17 days
[9] = tested on: velvetleaf (Abutilon theophrasti); test: Postemergence herbicidal activity, velvetleaf; settings: rate of application 0.3 Kg/Ha, rated after 12-17 days
[10] = tested on: common cocklebur (Xanthium strumarium L.); test: Postemergence herbicidal activity, cocklebur; settings: rate of application 0.3 Kg/Ha, rated after 12-17 days
[11] = tested on: common chickweed (Stellaria media); test: Preemergence herbicidal activity, chickweed; settings: Rate of Application 0.3 Kg/Ha, examined after 12-17 days
[12] = tested on: velvetleaf (Abutilon theophrasti); test: Preemergence herbicidal activity, velvetleaf; settings: Rate of Application 0.3 Kg/Ha, examined after 12-17 days
[13] = tested on: morningglory (Ipomea lacunosa or Ipomea hederacea); test: Postemergence herbicidal activity, morningglory; settings: rate of application 0.3 Kg/Ha, rated after 12-17 days
[14] = tested on: morningglory (Ipomea lacunosa or Ipomea hederacea); test: Preemergence herbicidal activity, morningglory; settings: Rate of Application 0.3 Kg/Ha, examined after 12-17 days
[15] = tested on: green foxtail (Setaria viridis); test: Postemergence herbicidal activity, green foxtail; settings: rate of application 0.3 Kg/Ha, rated after 12-17 days
[16] = tested on: soybean (Glycine max var. Winchester); test: Postemergence herbicidal activity, soybean; settings: rate of application 0.3 Kg/Ha, rated after 12-17 days
[17] = tested on: Johnsongrass (Sorghum halepense); test: Preemergence herbicidal activity, johnsongrass; settings: Rate of Application 0.3 Kg/Ha, examined after 12-17 days
[18] = tested on: blackgrass (Aloepecurus myosuroides); test: Preemergence herbicidal activity, blackgrass; settings: Rate of Application 0.3 Kg/Ha, examined after 12-17 days
[19] = tested on: field corn (Zea mays var. Pioneer 3732); test: Postemergence herbicidal activity, corn; settings: rate of application 0.3 Kg/Ha, rated after 12-17 days
[20] = tested on: green foxtail (Setaria viridis); test: Preemergence herbicidal activity, green foxtail; settings: Rate of Application 0.3 Kg/Ha, examined after 12-17 days

SMILES | Postemergence herbicidal activity (% control) WHT [1] [%] | PREEMERGENCE HERBICIDAL ACTIVITY (% CONTROL) WHT [2] [%] | PREEMERGENCE HERBICIDAL ACTIVITY (% CONTROL) CRN [3] [%] | Postemergence herbicidal activity (% control) SORHA [4] [%] | PREEMERGENCE HERBICIDAL ACTIVITY (% CONTROL) SOY [5] [%] | Postemergence herbicidal activity (% control) ALOMY [6] [%] | PREEMERGENCE HERBICIDAL ACTIVITY (% CONTROL) XANPE [7] [%] | Postemergence herbicidal activity (% control) STEME [8] [%] | Postemergence herbicidal activity (% control) ABUTH [9] [%] | Postemergence herbicidal activity (% control) XANPE [10] [%] | PREEMERGENCE HERBICIDAL ACTIVITY (% CONTROL) STEME [11] [%] | PREEMERGENCE HERBICIDAL ACTIVITY (% CONTROL) ABUTH [12] [%] | Postemergence herbicidal activity (% control) IPOSS [13] [%] | PREEMERGENCE HERBICIDAL ACTIVITY (% CONTROL) IPOSS [14] [%] | Postemergence herbicidal activity (% control) SETVI [15] [%] | Postemergence herbicidal activity (% control) SOY [16] [%] | PREEMERGENCE HERBICIDAL ACTIVITY (% CONTROL) SORHA [17] [%] | PREEMERGENCE HERBICIDAL ACTIVITY (% CONTROL) ALOMY [18] [%] | Postemergence herbicidal activity (% control) CRN [19] [%] | PREEMERGENCE HERBICIDAL ACTIVITY (% CONTROL) SETVI [20] [%]
Cn1c(C(F)(F)F)cc(=O)n(-c2ccc(Cl)c3cc(NC(=O)OC(C)(C)C)oc23)c1=O [Compound 272] | 30 | 0 | 20 | 40 | 20 | 20 | 20 | 50 | 100 | 50 | 100 | 100 | 60 | 70 | 70 | 50 | 60 | 70 | 45 | 90
Cn1c(C(F)(F)F)cc(=O)n(-c2c(F)cc(Cl)c3[nH]c(C(F)(F)Cl)nc23)c1=O [Compound 366] | 30 | 10 | 0 | 50 | 10 | 30 | 10 | 30 | 95 | 100 | 0 | 70 | 80 | 20 | 50 | 70 | 40 | 0 | 80 | 50
CNC(=O)OCCc1cc2c(Cl)cc(F)c(-n3c(=O)cc(C(F)(F)F)n(C)c3=O)c2o1 [Compound 261] | 80 | 80 | 95 | 100 | 100 | 100 | 90 | 100 | 100 | 100 | 100 | 100 | 100 | 100 | 100 | 95 | 100 | 80 | 100 | 100
CC(F)c1cc2c(Cl)cc(F)c(-n3c(=O)cc(C(F)(F)F)n(C)c3=O)c2o1 (stereo not drawn) [Compound 235] | 100 | 90 | 100 | 100 | 100 | 100 | 100 | 100 | 100 | 100 | 100 | 100 | 100 | 100 | 100 | 100 | 100 | 80 | 100 | 100
CNC(=O)c1cc2c(Cl)cc(F)c(-n3c(=O)cc(C(F)(F)F)n(C)c3=O)c2o1 [Compound 274] | 60 | 100 | 90 | 100 | 100 | 90 | 100 | 90 | 100 | 100 | 90 | 100 | 100 | 100 | 100 | 95 | 100 | 95 | 95 | 100
Cc1nc2c(-n3c(=O)cc(C(F)(F)F)n(C)c3=O)c(F)cc(Cl)c2o1 [Compound 1] | 65 | 85 | 90 | 80 | 100 | 70 | 100 | 90 | 100 | 100 | 100 | 100 | 100 | 100 | 80 | 95 | 95 | 90 | 80 | 100
